Experiment [1] in a line: Compound was tested for its relative bone-targeting affinity using a hydroxyapatite column.
For experiment [2], the target named is T1, Cyclin-dependent kinase 2 (Homo sapiens, UniProt P24941). Put plainly: Inhibition of Cyclin-dependent kinase 2 (CDK2).
Experiment [3] has as its target Casein kinase II (Homo sapiens) (UniProt P67870+P68400+P19784). Put plainly: Selectivity for casein kinase II, CK2. In kind it is protein-complex assay.
Experiment [4] concerns the target Cyclin-dependent kinase 1 (Homo sapiens) (UniProt P06493). Put plainly: Selectivity for cyclin-dependent kinase-1, CDK1.
Experiment [5] has as its target T1, Cyclin-dependent kinase 2. The experiment is described as follows: Selectivity for cyclin-dependent kinase 2, CDK2.
For experiment [6], the target named is DNA-dependent protein kinase catalytic subunit (Homo sapiens) (UniProt P78527). Put plainly: Selectivity for Protein kinase, DNAPK.
In experiment [7] the target is Cyclin-dependent kinase 5 (Homo sapiens) (UniProt Q00535). Put plainly: Selectivity for cyclin-dependent kinase-5, CDK5.
Experiment [8] is described as follows: Selectivity towards Protein kinase, EST-PT1.
For experiment [9], the target named is Mitogen-activated protein kinase 3 (Homo sapiens) (UniProt P27361). The experiment is described as follows: Selectivity for mitogen-activated protein kinase, ERK1.
For experiment [10], the target named is Tyrosine-protein kinase Fyn (Homo sapiens) (UniProt P06241). Put plainly: Selectivity for Fyn kinase.
Experiment [11] has as its target Glycogen synthase kinase-3 beta (Homo sapiens) (UniProt P49841). Put plainly: Selectivity for GSK3-beta.
Experiment [12] deals with T2, Scaffold protein ILK (Homo sapiens) (UniProt Q13418).
T2 sequence (whole entry): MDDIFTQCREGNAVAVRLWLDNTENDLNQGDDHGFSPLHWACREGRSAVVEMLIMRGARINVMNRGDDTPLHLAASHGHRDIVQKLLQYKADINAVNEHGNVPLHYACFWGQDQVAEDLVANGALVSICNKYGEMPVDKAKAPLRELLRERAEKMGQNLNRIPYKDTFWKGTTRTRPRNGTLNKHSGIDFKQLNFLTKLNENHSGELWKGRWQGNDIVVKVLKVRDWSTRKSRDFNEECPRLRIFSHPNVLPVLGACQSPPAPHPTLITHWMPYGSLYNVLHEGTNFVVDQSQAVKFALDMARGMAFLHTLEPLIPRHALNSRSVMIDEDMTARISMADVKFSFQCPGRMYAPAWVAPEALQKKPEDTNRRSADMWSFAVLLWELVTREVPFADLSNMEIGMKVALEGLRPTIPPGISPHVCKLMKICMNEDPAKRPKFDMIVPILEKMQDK
Put plainly: Selectivity towards Protein kinase, ILK1.

The target in experiment [13] is Receptor-type tyrosine-protein phosphatase F (Homo sapiens) (UniProt P10586). The experiment is described as follows: Selectivity towards Protein phosphatase, LAR.
The nature of experiment [14]: Selectivity towards Protein phosphatase, MEG2.
In experiment [15] the target is Serine/threonine-protein kinase pim-1 (Homo sapiens) (UniProt P11309). The experiment is described as follows: Selectivity towards Protein kinase, PIM1.
The target in experiment [16] is Serine/threonine-protein kinase PAK 3 (Homo sapiens) (UniProt O75914). Put plainly: Selectivity for p21-activated kinase-3, PAK3.
For experiment [17], the target named is cAMP-dependent protein kinase (PKA) (Homo sapiens) (UniProt P22694+P17612+P22612). Put plainly: Selectivity for PKA. It counts as protein assay.
Experiment [18] deals with Protein kinase C (PKC) (Homo sapiens) (UniProt O94806+P41743+P17252+P05129+Q05655+P05771+Q05513+Q02156+P24723+Q15139+Q04759). The experiment is described as follows: Selectivity for Protein kinase, PKC. It counts as protein assay.
In experiment [19] the target is T3, Tyrosine-protein phosphatase non-receptor type 1 (Homo sapiens) (UniProt P18031).
T3 sequence (whole entry): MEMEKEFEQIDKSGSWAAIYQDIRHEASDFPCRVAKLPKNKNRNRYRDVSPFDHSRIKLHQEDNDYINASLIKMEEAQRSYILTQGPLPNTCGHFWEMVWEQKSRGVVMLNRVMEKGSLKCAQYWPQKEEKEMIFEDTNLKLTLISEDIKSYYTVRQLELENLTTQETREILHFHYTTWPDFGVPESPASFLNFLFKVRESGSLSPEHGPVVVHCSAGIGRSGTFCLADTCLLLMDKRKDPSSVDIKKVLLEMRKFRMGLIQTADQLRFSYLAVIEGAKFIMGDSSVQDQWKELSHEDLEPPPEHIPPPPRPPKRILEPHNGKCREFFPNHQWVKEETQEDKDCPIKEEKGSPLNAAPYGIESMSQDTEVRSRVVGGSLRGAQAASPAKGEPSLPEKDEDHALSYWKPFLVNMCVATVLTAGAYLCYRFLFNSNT
Put plainly: Selectivity towards Protein phosphatase, PTP1b.

The target of experiment [20] is T4, Serine/threonine-protein kinase 3 (Homo sapiens) (UniProt Q13188).
T4 sequence (whole entry): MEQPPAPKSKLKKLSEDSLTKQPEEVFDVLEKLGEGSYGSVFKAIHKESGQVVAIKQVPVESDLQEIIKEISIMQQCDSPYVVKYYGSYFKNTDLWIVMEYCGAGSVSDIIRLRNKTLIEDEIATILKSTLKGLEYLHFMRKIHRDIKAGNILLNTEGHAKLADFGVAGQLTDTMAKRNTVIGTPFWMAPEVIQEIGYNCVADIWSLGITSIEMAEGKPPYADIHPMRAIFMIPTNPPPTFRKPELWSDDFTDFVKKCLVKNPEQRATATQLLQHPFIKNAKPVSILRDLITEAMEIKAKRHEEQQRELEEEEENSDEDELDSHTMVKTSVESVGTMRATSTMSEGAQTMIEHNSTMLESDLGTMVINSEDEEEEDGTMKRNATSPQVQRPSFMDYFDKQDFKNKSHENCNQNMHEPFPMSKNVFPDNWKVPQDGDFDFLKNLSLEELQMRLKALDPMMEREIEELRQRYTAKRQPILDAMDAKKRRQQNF
The experiment is described as follows: Selectivity for Serine/threonine kinase 3.

In experiment [21] the target is Tyrosine-protein kinase CSK (Homo sapiens) (UniProt P41240). The experiment is described as follows: Selectivity over Protein kinase CSK (100-500).
Experiment [22] concerns the target Wee1-like protein kinase (Homo sapiens) (UniProt P30291). The experiment is described as follows: Selectivity for Protein kinase WEE1.
The target in experiment [23] is Tyrosine-protein kinase Lck (Homo sapiens) (UniProt P06239). Put plainly: Selectivity p56 Lck tyrosine kinase.
The target in experiment [24] is Serine/threonine-protein kinase pim-1 (Homo sapiens) (UniProt P11309). Put plainly: Selectivity for pim-1 oncogene.
Experiment [25] is described as follows: Selectivity towards Protein phosphatase, TC-PTP.

pIC50: −log10 of the molar value. A value given as a limit tells only on which side of the number the result lay.

Chain of Serine/threonine-protein kinase pim-1 (Homo sapiens) (P11309 whole entry, looked up): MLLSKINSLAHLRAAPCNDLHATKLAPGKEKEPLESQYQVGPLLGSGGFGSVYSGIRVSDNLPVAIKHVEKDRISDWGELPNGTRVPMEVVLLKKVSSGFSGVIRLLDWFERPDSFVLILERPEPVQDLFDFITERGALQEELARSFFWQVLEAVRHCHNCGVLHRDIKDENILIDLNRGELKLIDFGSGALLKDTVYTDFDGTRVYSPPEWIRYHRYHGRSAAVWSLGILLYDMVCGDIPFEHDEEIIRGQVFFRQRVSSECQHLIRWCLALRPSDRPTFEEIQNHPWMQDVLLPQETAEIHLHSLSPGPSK
Chain of DNA-dependent protein kinase catalytic subunit (Homo sapiens) (P78527 whole entry): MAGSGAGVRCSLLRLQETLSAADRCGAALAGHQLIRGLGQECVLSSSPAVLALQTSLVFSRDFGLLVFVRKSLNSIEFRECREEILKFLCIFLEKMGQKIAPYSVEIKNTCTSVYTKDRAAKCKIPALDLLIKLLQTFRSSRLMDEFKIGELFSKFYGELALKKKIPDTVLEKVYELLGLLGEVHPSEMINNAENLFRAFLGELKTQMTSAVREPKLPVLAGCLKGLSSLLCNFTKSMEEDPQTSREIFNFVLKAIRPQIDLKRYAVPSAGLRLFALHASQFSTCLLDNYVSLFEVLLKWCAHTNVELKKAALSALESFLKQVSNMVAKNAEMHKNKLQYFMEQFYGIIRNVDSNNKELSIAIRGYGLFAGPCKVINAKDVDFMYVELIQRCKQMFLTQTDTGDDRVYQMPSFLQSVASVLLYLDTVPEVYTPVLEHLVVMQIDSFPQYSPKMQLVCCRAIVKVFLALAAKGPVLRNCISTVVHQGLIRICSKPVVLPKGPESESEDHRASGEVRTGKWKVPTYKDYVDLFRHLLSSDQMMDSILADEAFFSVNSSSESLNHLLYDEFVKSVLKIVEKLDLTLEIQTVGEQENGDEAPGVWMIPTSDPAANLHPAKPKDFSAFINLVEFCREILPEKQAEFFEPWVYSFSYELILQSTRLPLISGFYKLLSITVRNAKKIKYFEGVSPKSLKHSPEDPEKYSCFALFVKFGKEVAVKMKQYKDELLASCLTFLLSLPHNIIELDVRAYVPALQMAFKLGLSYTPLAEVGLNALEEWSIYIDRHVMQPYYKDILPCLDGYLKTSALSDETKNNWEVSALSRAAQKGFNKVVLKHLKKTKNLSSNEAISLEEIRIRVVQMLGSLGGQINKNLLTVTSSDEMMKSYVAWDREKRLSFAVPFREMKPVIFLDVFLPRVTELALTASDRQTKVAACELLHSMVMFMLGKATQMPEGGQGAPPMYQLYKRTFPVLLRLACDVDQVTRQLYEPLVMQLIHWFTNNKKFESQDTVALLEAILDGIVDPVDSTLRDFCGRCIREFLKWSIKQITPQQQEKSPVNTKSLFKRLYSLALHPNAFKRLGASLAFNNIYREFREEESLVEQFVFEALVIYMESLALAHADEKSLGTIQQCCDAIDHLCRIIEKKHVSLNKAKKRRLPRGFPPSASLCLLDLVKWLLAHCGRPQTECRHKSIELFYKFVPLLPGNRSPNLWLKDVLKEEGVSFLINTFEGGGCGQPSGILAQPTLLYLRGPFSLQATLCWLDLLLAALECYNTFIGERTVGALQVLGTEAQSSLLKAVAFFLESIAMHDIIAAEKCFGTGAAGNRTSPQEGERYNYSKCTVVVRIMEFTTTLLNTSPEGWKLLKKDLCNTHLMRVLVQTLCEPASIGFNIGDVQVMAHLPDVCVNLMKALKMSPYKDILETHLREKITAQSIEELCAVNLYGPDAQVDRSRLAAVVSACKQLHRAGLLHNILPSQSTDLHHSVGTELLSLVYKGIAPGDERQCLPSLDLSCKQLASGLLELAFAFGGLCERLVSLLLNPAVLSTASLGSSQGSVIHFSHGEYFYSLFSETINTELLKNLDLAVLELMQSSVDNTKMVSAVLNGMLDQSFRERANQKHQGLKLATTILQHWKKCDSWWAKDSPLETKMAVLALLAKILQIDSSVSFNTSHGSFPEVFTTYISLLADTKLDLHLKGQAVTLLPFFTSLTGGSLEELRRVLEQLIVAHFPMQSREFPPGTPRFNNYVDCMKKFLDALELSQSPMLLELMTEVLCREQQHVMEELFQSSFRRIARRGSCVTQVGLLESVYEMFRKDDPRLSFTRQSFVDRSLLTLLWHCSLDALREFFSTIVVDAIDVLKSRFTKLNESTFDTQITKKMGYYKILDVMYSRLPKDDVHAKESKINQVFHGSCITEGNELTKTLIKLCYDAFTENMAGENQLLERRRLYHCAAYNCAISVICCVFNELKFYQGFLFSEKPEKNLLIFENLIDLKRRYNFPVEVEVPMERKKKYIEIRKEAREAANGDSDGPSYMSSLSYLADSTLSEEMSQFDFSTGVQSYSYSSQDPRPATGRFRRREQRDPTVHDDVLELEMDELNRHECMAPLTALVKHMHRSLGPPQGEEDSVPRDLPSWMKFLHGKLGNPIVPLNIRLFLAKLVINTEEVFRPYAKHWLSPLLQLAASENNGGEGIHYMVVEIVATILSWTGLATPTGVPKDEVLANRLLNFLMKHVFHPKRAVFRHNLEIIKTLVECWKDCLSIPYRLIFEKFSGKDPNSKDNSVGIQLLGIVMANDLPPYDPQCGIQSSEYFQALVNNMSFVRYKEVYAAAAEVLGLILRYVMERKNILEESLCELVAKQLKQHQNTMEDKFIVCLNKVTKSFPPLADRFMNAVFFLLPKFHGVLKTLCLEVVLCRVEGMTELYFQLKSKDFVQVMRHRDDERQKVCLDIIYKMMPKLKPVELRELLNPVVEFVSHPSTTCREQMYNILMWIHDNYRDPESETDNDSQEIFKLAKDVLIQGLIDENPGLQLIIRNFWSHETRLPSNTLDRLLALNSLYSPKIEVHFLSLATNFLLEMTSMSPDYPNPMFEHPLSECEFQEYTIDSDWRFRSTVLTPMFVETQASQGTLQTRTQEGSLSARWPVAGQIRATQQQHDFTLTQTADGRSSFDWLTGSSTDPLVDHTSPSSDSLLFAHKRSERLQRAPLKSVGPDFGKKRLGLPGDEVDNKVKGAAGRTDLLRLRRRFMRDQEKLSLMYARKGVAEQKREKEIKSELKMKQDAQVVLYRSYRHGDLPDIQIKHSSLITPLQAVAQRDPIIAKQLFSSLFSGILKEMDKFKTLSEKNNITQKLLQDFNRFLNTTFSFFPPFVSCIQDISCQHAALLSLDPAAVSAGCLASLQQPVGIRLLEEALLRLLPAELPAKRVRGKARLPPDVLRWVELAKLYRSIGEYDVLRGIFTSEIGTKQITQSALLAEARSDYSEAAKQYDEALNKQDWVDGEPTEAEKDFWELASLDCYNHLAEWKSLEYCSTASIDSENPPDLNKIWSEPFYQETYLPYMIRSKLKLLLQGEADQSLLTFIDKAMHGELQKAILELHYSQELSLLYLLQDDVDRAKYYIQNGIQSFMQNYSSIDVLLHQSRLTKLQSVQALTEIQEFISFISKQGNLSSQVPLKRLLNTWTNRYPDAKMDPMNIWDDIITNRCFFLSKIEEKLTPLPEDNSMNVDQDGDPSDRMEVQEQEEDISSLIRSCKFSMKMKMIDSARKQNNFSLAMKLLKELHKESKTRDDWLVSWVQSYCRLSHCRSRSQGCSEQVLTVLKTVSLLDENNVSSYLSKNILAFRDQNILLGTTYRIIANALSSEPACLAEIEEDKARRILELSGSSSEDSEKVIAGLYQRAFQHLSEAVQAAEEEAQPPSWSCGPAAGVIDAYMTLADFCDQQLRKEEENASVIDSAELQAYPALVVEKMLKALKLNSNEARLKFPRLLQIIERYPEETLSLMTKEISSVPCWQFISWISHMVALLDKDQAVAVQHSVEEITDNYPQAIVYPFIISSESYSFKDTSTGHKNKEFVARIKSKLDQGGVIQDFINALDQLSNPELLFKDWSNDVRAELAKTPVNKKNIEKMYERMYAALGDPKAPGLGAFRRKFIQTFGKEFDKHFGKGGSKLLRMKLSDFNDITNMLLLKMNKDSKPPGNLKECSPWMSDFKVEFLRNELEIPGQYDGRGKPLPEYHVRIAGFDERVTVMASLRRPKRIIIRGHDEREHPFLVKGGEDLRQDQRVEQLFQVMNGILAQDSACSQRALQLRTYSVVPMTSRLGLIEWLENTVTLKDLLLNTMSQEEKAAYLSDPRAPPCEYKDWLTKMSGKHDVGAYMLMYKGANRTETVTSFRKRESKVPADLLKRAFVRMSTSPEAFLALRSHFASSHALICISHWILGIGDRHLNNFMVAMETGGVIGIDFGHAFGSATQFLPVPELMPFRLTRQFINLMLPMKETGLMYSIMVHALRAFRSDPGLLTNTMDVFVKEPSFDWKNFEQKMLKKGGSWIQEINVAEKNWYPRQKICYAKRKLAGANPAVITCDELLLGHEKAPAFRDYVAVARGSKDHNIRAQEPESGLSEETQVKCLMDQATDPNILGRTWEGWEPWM
Chain of Mitogen-activated protein kinase 3 (Homo sapiens) (P27361 whole entry): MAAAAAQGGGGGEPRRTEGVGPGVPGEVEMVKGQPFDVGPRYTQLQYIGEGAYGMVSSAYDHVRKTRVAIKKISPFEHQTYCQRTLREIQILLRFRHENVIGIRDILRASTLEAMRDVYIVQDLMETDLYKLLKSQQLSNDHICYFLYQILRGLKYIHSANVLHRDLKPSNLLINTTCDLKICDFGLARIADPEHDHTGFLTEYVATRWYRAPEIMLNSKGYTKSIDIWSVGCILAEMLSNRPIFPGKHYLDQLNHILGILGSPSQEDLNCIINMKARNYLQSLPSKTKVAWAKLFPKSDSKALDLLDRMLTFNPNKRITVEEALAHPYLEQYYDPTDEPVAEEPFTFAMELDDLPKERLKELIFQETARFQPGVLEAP
Chain of Cyclin-dependent kinase 5 (Homo sapiens) (Q00535 whole entry, looked up): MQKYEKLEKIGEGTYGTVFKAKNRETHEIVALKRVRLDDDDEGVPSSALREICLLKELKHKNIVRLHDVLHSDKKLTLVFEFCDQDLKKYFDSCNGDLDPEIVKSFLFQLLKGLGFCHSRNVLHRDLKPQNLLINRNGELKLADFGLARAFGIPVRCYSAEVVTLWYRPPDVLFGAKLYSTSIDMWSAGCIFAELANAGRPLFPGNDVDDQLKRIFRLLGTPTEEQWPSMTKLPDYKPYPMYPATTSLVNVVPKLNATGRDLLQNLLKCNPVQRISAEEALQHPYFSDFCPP

`O=P(O)(O)CP(=O)(O)CCCNc1nc(Nc2ccccc2)c2ncn(C3CCCC3)c2n1`: in [1], the K' stood at 2.3.

In experiment [1], `O=P(O)(O)C(O)(CCCNc1nc(Nc2ccccc2)c2ncn(C3CCCC3)c2n1)P(=O)(O)O` registered a K' of 3.6.

The compound `N[C@H]1CC[C@H](Nc2nc(Nc3ccc(C(P(=O)(O)O)P(=O)(O)O)cc3)c3ncn(C4CCCC4)c3n2)CC1` registered a K' in experiment [1] of 3.3.

In general, pIC50 refers to the IC50 on a negative log10 scale, so that one unit is a factor of ten. With `CC(C)[C@H](CO)Nc1nc(Nc2cccc(Cl)c2)c2ncn(C(C)C)c2n1` [PURVALANOLA], the pIC50 in experiment [2] was 8.40.

In the case of `N[C@H]1CC[C@H](Nc2nc(Nc3ccccc3)c3ncn(C4CCCC4)c3n2)CC1`, the K' in experiment [1] is 0.

Compound `CN(C)CCNc1nc(Nc2ccccc2)c2ncn(C3CCCC3)c2n1` gave a K' in experiment [1] of 0.

Turning to `N[C@H]1CC[C@H](Nc2nc(Nc3ccc(P(=O)(O)CP(=O)(O)O)cc3)c3ncn(C4CCCC4)c3n2)CC1`, the Selectivity was more than 500 in experiment [3]; 10 in [4]; 10 in experiment [5]; more than 500 in [6]; 10 in [7]; more than 500 in experiment [8]. The Selectivity in experiment [9] was more than 500; in experiment [10], 1; in experiment [11], more than 500; in experiment [12] it was more than 500; in experiment [13], more than 500; in experiment [14], more than 500. Besides, the Selectivity was more than 500 in experiment [15]; 100 in experiment [16]; more than 500 in experiment [17]; more than 500 in experiment [18]; more than 500 in experiment [19]; more than 500 in experiment [20]. For the same compound, the Selectivity in [21] was 100; in experiment [22] it was more than 500; in experiment [23] it was 100; in [24] it was more than 500; in experiment [25], more than 500. This compound also returned a K' in experiment [1] of 2.5.

Consider `N[C@H]1CC[C@H](Nc2nc(Nc3ccc(P(=O)(O)O)c(P(=O)(O)O)c3)c3ncn(C4CCCC4)c3n2)CC1`, for which the K' in experiment [1] came out at 1.8.

The record behind these values is ChEMBL document CHEMBL1136209, “Bone-targeted 2,6,9-trisubstituted purines: novel inhibitors of Src tyrosine kinase for the treatment of bone diseases” (Bioorg Med Chem Lett, 2003).
